Data: article PMC10841833 (Cancer research, 2023)

Target: citron kinase (CIT/CRIK) (Homo sapiens, UniProt O14578)
Test: in vitro kinase assay
Type: biochemical

citron kinase (CIT/CRIK), sequence (O14578 whole entry): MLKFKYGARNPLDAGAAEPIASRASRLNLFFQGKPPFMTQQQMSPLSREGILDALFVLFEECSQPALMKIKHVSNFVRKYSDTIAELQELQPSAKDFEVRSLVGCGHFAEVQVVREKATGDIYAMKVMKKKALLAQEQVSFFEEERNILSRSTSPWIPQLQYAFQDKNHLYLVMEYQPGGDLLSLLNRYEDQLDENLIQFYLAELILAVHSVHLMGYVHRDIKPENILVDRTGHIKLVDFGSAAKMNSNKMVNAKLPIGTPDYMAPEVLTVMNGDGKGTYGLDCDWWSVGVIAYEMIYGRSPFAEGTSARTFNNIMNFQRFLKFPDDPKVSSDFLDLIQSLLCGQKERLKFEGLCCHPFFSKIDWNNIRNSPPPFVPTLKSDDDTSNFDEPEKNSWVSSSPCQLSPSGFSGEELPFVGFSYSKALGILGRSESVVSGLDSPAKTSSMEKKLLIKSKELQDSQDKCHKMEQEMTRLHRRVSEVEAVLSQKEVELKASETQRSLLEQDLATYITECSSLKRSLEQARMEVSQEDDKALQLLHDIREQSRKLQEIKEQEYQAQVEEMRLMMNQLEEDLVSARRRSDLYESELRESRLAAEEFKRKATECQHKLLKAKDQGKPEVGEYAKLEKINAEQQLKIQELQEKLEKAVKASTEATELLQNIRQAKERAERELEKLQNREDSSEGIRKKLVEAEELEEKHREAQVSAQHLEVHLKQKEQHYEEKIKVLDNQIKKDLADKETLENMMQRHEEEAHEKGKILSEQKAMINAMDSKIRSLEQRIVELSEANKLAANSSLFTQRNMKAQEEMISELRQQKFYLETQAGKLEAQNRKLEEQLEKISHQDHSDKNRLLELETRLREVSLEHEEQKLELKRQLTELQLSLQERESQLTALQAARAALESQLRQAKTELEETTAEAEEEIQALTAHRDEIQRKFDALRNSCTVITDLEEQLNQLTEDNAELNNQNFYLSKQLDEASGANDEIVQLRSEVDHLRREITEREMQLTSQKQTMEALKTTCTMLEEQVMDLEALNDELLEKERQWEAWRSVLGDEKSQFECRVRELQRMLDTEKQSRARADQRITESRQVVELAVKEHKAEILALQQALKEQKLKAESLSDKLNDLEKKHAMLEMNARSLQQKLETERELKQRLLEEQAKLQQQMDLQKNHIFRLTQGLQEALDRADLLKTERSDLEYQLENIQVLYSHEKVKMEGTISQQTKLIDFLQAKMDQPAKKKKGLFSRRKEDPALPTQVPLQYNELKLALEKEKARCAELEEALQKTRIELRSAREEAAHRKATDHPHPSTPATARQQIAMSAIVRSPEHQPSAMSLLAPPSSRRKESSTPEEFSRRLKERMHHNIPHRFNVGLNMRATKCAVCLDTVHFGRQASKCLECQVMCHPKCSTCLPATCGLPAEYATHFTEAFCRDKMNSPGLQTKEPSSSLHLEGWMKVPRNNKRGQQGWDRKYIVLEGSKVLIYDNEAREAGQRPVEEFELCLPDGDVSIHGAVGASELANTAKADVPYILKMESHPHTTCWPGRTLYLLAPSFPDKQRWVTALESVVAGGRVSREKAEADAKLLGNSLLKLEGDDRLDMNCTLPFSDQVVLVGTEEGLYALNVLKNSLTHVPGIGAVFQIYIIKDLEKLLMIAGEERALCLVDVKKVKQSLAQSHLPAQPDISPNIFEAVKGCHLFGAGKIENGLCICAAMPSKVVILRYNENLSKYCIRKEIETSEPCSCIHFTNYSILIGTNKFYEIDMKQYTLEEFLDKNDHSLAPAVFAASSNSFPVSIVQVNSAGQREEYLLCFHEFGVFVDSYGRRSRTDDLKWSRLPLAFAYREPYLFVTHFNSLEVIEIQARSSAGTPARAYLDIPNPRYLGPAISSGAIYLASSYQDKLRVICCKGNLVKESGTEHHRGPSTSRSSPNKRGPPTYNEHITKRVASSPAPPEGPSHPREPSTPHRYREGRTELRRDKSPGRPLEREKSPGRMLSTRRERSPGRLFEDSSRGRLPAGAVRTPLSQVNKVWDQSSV

`CC(=O)c1cnc2ccc(-c3cc(Cl)c(O)c(Cl)c3)nc2c1N[C@H]1CC[C@H](CN(C)C)CC1` [OTS-167] gave an IC50 of roughly 10 nM.
